Data reported in patent US7338932B2, “Methods of modulating functions of polypeptide GalNAc-transferases and of screening test substances to find agents herefor, pharmaceutical compositions comprising such agents and the use of such agents for preparing medicaments” (Glycozym APS, priority 2000, dated 2008).

Tests used:
[1] = target: T1, GalNAc-T7 (Homo sapiens, UniProt Q86SF2); assay: Inhibition of GalNAc-T7 activity with GalNAc2-3EA2 substrate; format: biochemical; details: 5 mM
T1 construct: made in house; host or cells: High Five insect cells (baculovirus)
T1 sequence (Q86SF2 30-657 limits assumed): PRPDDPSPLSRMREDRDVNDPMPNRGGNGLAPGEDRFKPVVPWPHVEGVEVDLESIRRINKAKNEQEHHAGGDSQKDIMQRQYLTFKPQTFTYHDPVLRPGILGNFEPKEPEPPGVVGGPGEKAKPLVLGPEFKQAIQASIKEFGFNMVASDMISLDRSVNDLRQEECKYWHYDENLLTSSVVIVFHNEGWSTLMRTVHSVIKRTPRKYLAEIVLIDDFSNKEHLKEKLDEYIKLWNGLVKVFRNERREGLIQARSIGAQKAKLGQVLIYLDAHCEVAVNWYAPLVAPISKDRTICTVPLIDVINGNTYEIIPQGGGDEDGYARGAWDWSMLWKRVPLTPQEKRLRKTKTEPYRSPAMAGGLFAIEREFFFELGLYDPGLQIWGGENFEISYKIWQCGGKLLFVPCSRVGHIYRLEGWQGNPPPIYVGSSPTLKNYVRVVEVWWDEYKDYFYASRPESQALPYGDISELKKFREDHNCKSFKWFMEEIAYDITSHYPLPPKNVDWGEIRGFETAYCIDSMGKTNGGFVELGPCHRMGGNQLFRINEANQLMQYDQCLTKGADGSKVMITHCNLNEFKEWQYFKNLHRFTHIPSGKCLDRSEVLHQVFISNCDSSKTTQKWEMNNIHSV
Procedure: Standard reaction mixtures (50 μl final volume) contained 25 mM cocadylate (pH 7.4), 10 mM MnCl2, 0.25% Triton X-100, 200 μM UDP-[^14C]-GalNAc (2,000 cpm/nmol) (Amersham), 200-500 μM acceptor peptides. Products were quantified by scintillation counting after chromatography on Dowex-1, octadecyl silica cartridges (Bakerbond), or HPLC (PC3.2/3 or mRPC C2/C18 SC2.1/10 Pharmacia, Smart System). […] Glycopeptides were purified on Supelclean LC-18 columns (1 ml, Supelco), and the number of GalNAc residues incorporated evaluated by MALDI-TOF mass spectrometry. The enzyme sources used were semipurified as previously described by successive sequential ion-exchange chromatographies on Amberlite (IRA95, Sigma) or DEAE Sephacel (Pharmacia), S-Sepharose Fast Flow (Pharmacia), and Mini-S™ (PC 3.2/3, Pharmacia) using the Smart System (Pharmacia) (28). Secreted GalNAc-T4 was obtained from a stably transfected CHO line (CHO/GalNA-T4/21A) (8) grown in roller bottles in HAMS F12 supplemented with 10% Fetal Bovine Serum. The experiments illustrated in FIG. 1 was performed with recombinant secreted GalNAc-T4 obtained from a stably transfected CHO line (8). Experiments illustrated in FIGS. 2 and 3 were performed with secreted GalNAc-T4 expressed in High Five cells grown in serum-free medium (8). Structural analysis of glycopeptides were performed by a combination of PFPA (pentafluoropropionic acid) hydrolysis and MALDI-TOF mass spectrometry as previously described (40). Secreted GalNAc-T7 was obtained from infected High Five™ cells grown in serum-free medium (Invitrogen) in upright roller bottles shaken 140 rpm in waterbaths at 27° C. GalNAc-T7 was not purified by Mini-S as the yields from cationic chromatography were low due to its low pI (6.4).
GalNAc-T7 activity was analysed with GalNAc glycosylated glycopeptides (represented by GalNAc2-3EA2 (7)) in reactions of 25 μl containing 2.5 nmol acceptor (glyco)peptide, 40 nmol UDP-GalNAc, and purified GalNAc-T7. […]

[2] = test system: CHOldlD/MUC1F-clone2 cells; assay: MUC1 expression in cell lysates, immunoprecipitation and SDS-PAGE western blot; format: cell-based, Chinese Hamster; details: 2 mM, 48 hours
[3] = target: T2, GalNAc-T2 lectin domain (T2ld) (Homo sapiens, UniProt Q10471); assay: Direct binding ELISA to GalNAc-MUC1 glycopeptide, competitive inhibition, T2ld
T2 construct: made in house; host or cells: High Five insect cells (baculovirus, pAcGP67-A)
T2 sequence (Q10471 408-571): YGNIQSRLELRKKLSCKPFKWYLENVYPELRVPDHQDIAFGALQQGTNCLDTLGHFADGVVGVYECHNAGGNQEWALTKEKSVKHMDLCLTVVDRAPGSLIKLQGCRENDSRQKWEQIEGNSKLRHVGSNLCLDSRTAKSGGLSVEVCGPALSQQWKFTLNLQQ
Procedure: Protein biotinylation was made as previously reported^62. The pH of 1 ml purified protein (0.3 mg/ml) in PBS was adjusted to pH 9 with 1 M NaOH and 40 μl N-hydroxy-succinimidobiotin (Sigma) dissolved in DMF (10 mg/ml) was added. The solution was mixed end-over-end for 2 hours at room temperature, and dialyzed three times against PBS and an equal volume of glycerol was added. The biotinylated proteins were stored at −20° C. in 50% glycerol until use.
Direct binding ELISA assay was developed as follows: Polystyrene microtiter plates (Maxisorb, Nunc, Denmark) were coated with peptides or enzymatically glycosylated glycopeptides in PBS overnight at 4° C. Plates were washed and blocked with 0.1% Tween20 and 0.2% BSA in PBS for 1 h at room temperature, followed by incubation with biotinylated proteins in PBS with 0.05% Tween20 for 2 h at room temperature. After four washes with PBS, plates were incubated with 1:2,000 dilution streptavidin-HRP (Sigma) in PBS for 30 min at room temperature and washed four times with PBS. Development was performed with 0.5 mg/ml o-phenylenediamine and 0.02% H2O2 at room temperature for 15 min, and reaction stopped by adding 100 μl/well of 0.5 N H2SO4. Competitive inhibition assays were done at end-point titers of GalNAc-transferase proteins with one hour preincubations with inhibitor.
In binding studies using lectins without biotinylation antibodies to the HIS-tag and the T7-tag, or in some experiments antibodies raised to GalNAc-T2 and -T4 enzymes were used to detect binding.

| Compound | Inhibition of GalNAc-T7 activity with GalNAc2-3EA2 [1] | MUC1 expression ([2]; IP HMFG2, blot 5E5) | SDS-PAGE migration of MUC1 (O-glycosylation) ([2]; cells grown in Gal and GalNAc, blot 5E5) | IC50 [3] |
| --- | --- | --- | --- | --- |
| CC(=O)N[C@H]1[C@@H](OCc2ccccc2)O[C@H](CO)[C@H](O)[C@@H]1O [GalNAcα-benzyl] | significantly inhibited | significant reduction in MUC1 expression | marked shift in migration | – |
| CC(=O)N[C@H]1[C@@H](OCc2ccccc2)O[C@H](CO)[C@@H](O)[C@@H]1O [GlcNAcα-benzyl] | – | – | – | > 100 mM |
